What was measured:
[1] = per 1 gram of water; cited from earlier work
[2] = Complex formation with β-cyclodextrin, association constant (ITC measurements for cetirizine); format: binding; details: beta versus alpha and gamma cyclodextrin
Source text: Alpha cyclodextrin consists of a ring of 6 glucose units while beta has 7 glucose units in a ring and gamma has 8 glucose units in a ring. The ring structures form a crown. The inside of the crown is able to complex with APIs in the current application. […] Either the phenyl group or the 4-chlorophenyl group fit inside the ring structure. The inside cavity of cylcodextrins is largely hydrophobic, which is favorable for APIs' hydrophobic aromatic systems. The formation of the chelate structure is endothermically favorable due to electrostatic interactions of the pi system of the aromatic moiety with in the hydrophobic cavity and electronic interaction with the hydrogen atoms and glycidyl ether bonds. It is these electronic interactions between these systems of the cyclodextrin and the pi system that gives the favorable heat of formation. […] In one embodiment, the complexing composition consists essentially of beta-cyclodextrin.
Diphenhydramine forms complexes with cylcodextrins. The mechanism is similar to that of cetirizine. […] In one embodiment, the complexing agent comprises beta cyclodextrin, which is configured to form antihistamine complex. In some embodiments, the complexing agent comprises alpha-cyclodextrin, gamma-cyclodextrin, or a combination there. The action of coordination with diphenhydramine is similar to that of cetirizine.

[3] = cited from earlier work
[4] = cited from earlier work; remark: listed apart in the source
[5] = cited from earlier work; remark: listed apart in the source

| Structure (SMILES) | amount that dissolves into 1 gram of water [1] | formation constant with beta cyclodextrin relative to alpha and gamma cyclodextrin [2] | association constant K(a) of the complex with α-cyclodextrin [3] [M⁻¹] | association constant K(a) of the complex with β-cyclodextrin [4] [M⁻¹] | association constant K(a) of the complex with γ-cyclodextrin [5] [M⁻¹] |
| --- | --- | --- | --- | --- | --- |
| OC[C@H]1O[C@@](CO)(O[C@H]2O[C@H](CO)[C@@H](O)[C@H](O)[C@H]2O)[C@@H](O)[C@@H]1O [sucrose, O-α-D-glucopyranosyl-(1→2)-β-D-fructofuranoside] | More than 2 grams |  |  |  |  |
| O=C(CO)[C@@H](O)[C@H](O)[C@H](O)CO [fructose] | ~4 grams |  |  |  |  |
| O=C(O)COCCN1CCN(C(c2ccccc2)c2ccc(Cl)cc2)CC1 (stereo not drawn) [Cetirizine, cetirizine] |  | nearly four times | 1434 ± 60 | 5641 ± 358 | 1200 ± 50 |

From patent publication US20210386732A1, “SEMI-SOLID ANTI-HISTAMINE COMPOSITIONS AND METHODS OF MAKING AND USING THEREOF” (SEATTLE GUMMY COMPANY, priority 2018, published 2021)
